Marks after values point to notes of the source that are not given here.
Test system: subjects undergoing cataract extraction with lens replacement (CELR)
Assay: Phase 3: adverse events (safety analysis set)
Type: in vivo, human
Experimental: The safety of MELT-300 was performed at baseline, in the course of surgery (intraoperatively), postoperatively on Day 1, and on Day 3+1 day post dose of study medication. Safety assessment included monitoring of AEs, vital sign measurements, and physical examinations.
An overview of adverse events (AEs) is provided in TABLE 57 for the safety analysis set. Reported data includes an overall summary of the presence of any AEs, treatment-emergent ocular adverse events (TEAEs), treatment-related TEAEs, TEAE of special interest (TEAESI), serious AEs (SEAs), and treatment-emergent SAEs (TESAE). Categories were not mutually exclusive. Results include the number of subjects, percent of subjects, and number of events in each category, respectively. A summary of treatment-emergence adverse events (TEAEs) by location, system organ class, and preferred term for the safety analysis set is provided in TABLE 58. A summary of treatment-related treatment-emergent adverse events (TRTEAEs) by system organ class, and preferred term for the safety analysis set is provided in TABLE 59. No SAEs (overall), TESAEs, or treatment-related TESAEs were observed. No SAEs resulting in death or discontinuation of the study was observed.

[1] = Location: Non-Ocular, Safety Analysis Set
[2] = Location: Non-Ocular, Safety analysis set
[3] = Location: Ocular, Safety Analysis Set
[4] = Location: Ocular, Safety analysis set

In the case of `Cc1ncc2n1-c1ccc(Cl)cc1C(c1ccccc1F)=NC2` [Midazolam, 8-chloro-6-(2-fluorophenyl)-1-methyl-4H-imidazo[1,5-a][1,4]benzodiazepine], the “TEAE: Amnesia” value [1] is reported as 0 n, the “TEAE: Anxiety” value [1] is reported as 0 n and the “TEAE: Back pain” value [1] is reported as 0 n. The “TEAE: Balance disorder” value [1] was 0 n, the “TEAE: Blood pressure increased” value [1] was 0 n and the “TEAE: Blood pressure systolic increased” value [1] was 0 n. The “TEAE: Bradycardia” value [1] was 0 n, the “TEAE: Cardiac disorders (System Organ Class)” value [1] was 0 n and the “TEAE: Cough” value [1] was 0 n. For the same compound, the “TEAE: Dental local anaesthesia” value [1] was 0 n, the “TEAE: Dizziness” value [1] was 0 n and the “TEAE: Fatigue” value [1] was 0 n. The “TEAE: Gastrointestinal disorders (System Organ Class)” value [1] was 0 n, the “TEAE: General disorders and administration site conditions (System Organ Class)” value [1] was 0 n and the “TEAE: Hiccups” value [1] was 0 n. For the same compound, the “TEAE: Hypertension” value [1] was 0 n, the “TEAE: Hypoaesthesia oral” value [1] was 0 n and the “TEAE: Infections and infestations (System Organ Class)” value [1] was 0 n. For the same compound, the “TEAE: Injury, poisoning and procedural complications (System Organ Class)” value [1] was 0 n, the “TEAE: Investigations (System Organ Class)” value [1] was 0 n and the “TEAE: Lethargy” value [1] was 0 n. The “TEAE: Musculoskeletal and connective tissue disorders (System Organ Class)” value [1] was 0 n, the “TEAE: Myalgia” value [1] was 0 n and the “TEAE: Nasal Discomfort” value [1] was 0 n. The “TEAE: Nausea” value [1] was 0 n, the “TEAE: Neck pain” value [1] was 0 n and the “TEAE: Oxygen saturation decreased” value [1] was 0 n. The “TEAE: Post procedural hypotension” value [1] was 0 n, the “TEAE: Procedural nausea” value [1] was 0 n and the “TEAE: Procedural vomiting” value [1] was 0 n. The “TEAE: Product after taste” value [1] was 0 n, the “TEAE: Product issues (System Organ Class)” value [1] was 0 n and the “TEAE: Psychiatric disorders (System Organ Class)” value [1] was 0 n. For the same compound, the “TEAE: Pyrexia” value [1] was 0 n, the “TEAE: Sinusitis” value [1] was 0 n and the “TEAE: Surgical and medical procedures (System Organ Class)” value [1] was 0 n. The “TEAE: Tachycardia” value [1] was 0 n, the “TEAE: Taste disorder” value [1] was 0 n and the “TEAE: Vascular disorders (System Organ Class)” value [1] was 0 n. For the same compound, the “Any AE, events” value [2] was 9 #, the “Any AE, subjects” value [2] was 7 (7.9) n (%) and the “Any Grade 3+ TEAE, events” value [2] was 0 #. For the same compound, the “Any Grade 3+ TEAE, subjects” value [2] was 0 n (%), the “Any SAE, events” value [2] was 0 # and the “Any SAE, subjects” value [2] was 0 n (%). For the same compound, the “Any TEAE Resulting in Death, events” value [2] was 0 #, the “Any TEAE Resulting in Death, subjects” value [2] was 0 n (%) and the “Any TEAE Resulting in Study Drug Interruption, events” value [2] was 0 #. For the same compound, the “Any TEAE Resulting in Study Drug Interruption, subjects” value [2] was 0 n (%), the “Any TEAE Resulting in Study Drug Withdrawal, events” value [2] was 0 # and the “Any TEAE Resulting in Study Drug Withdrawal, subjects” value [2] was 0 n (%). The “Any TEAE, events” value [2] was 5 #, the “Any TEAE, subjects” value [2] was 4 (4.5) n (%) and the “Any TEAESI, events” value [2] was 2 #. The “Any TEAESI, subjects” value [2] was 2 (2.2) n (%), the “Any TESAE, events” value [2] was 0 # and the “Any TESAE, subjects” value [2] was 0 n (%). The “Any Treatment-Related TEAE Resulting in Death, events” value [2] was 0 #, the “Any Treatment-Related TEAE Resulting in Death, subjects” value [2] was 0 n (%) and the “Any Treatment-Related TEAE, events” value [2] was 3 #. The “Any Treatment-Related TEAE, subjects” value [2] was 2 (2.2) n (%), the “Any Treatment-Related TEAESI, events” value [2] was 1 # and the “Any Treatment-Related TEAESI, subjects” value [2] was 1 (1.1) n (%). The “Any Treatment-Related TESAE, events” value [2] was 0 #, the “Any Treatment-Related TESAE, subjects” value [2] was 0 n (%) and the “Any Unexpected TEAE, events” value [2] was 0 #. The “Any Unexpected TEAE, subjects” value [2] was 0 n (%), the “Any Unexpected Treatment-Related TEAE, events” value [2] was 0 # and the “Any Unexpected Treatment-Related TEAE, subjects” value [2] was 0 n (%). The “TEAESI: Abuse-related AEs, events” value [2] was 0 #, the “TEAESI: Abuse-related AEs, subjects” value [2] was 0 n (%) and the “TEAESI: Cardiovascular AEs, events” value [2] was 1 #. The “TEAESI: Cardiovascular AEs, subjects” value [2] was 1 (1.1) n (%), the “TEAESI: Ketamine emergence delirium, events” value [2] was 0 # and the “TEAESI: Ketamine emergence delirium, subjects” value [2] was 0 n (%). The “TEAESI: Neurocognitive AEs, events” value [2] was 0 #, the “TEAESI: Neurocognitive AEs, subjects” value [2] was 0 n (%) and the “TEAESI: Oral/pharyngeal AEs, events” value [2] was 0 #. For the same compound, the “TEAESI: Oral/pharyngeal AEs, subjects” value [2] was 0 n (%), the “TEAESI: Oversedation requiring the use of flumazenil, events” value [2] was 0 # and the “TEAESI: Oversedation requiring the use of flumazenil, subjects” value [2] was 0 n (%). For the same compound, the “TEAESI: Respiratory AEs, events” value [2] was 1 #, the “TEAESI: Respiratory AEs, subjects” value [2] was 1 (1.1) n (%) and the “TEAE: Abnormal sensation in eye” value [3] was 0 n. The “TEAE: Corneal abrasion” value [3] was 0 n, the “TEAE: Corneal oedema” value [3] was 0 n and the “TEAE: Diplopia” value [3] was 0 n. The “TEAE: General disorders and administration site conditions (System Organ Class)” value [3] was 0 n, the “TEAE: Glare” value [3] was 0 n and the “TEAE: Injury, poisoning and procedural complications (System Organ Class)” value [3] was 0 n. For the same compound, the “TEAE: Installation site pain” value [3] was 0 n, the “TEAE: Lacrimation increased” value [3] was 0 n and the “TEAE: Ocular discomfort” value [3] was 0 n. The “TEAE: Photophobia” value [3] was 0 n, the “TEAE: Photopsia” value [3] was 0 n and the “TEAE: Procedural pain” value [3] was 0 n. For the same compound, the “TEAE: Visual field defect” value [3] was 0 n, the “TEAE: Visual impairment” value [3] was 0 n and the “Any AE, events” value [4] was 15 #. For the same compound, the “Any AE, subjects” value [4] was 10 (11.2) n (%), the “Any Grade 3+ TEAE, events” value [4] was 0 # and the “Any Grade 3+ TEAE, subjects” value [4] was 0 n (%). The “Any Grade 3+ Treatment-Related TEAE, events” value [4] was 0 #, the “Any Grade 3+ Treatment-Related TEAE, subjects” value [4] was 0 n (%) and the “Any SAE, events” value [4] was 0 #. The “Any SAE, subjects” value [4] was 0 n (%), the “Any TEAE Resulting in Death, events” value [4] was 0 # and the “Any TEAE Resulting in Death, subjects” value [4] was 0 n (%). For the same compound, the “Any TEAE Resulting in Study Drug Interruption, events” value [4] was 0 #, the “Any TEAE Resulting in Study Drug Interruption, subjects” value [4] was 0 n (%) and the “Any TEAE Resulting in Study Drug Withdrawal, events” value [4] was 0 #. For the same compound, the “Any TEAE Resulting in Study Drug Withdrawal, subjects” value [4] was 0 n (%), the “Any TEAE, events” value [4] was 15 # and the “Any TEAE, subjects” value [4] was 10 (11.2) n (%). The “Any TEAESI, events” value [4] was 0 #, the “Any TEAESI, subjects” value [4] was 2 (2.2) n (%) and the “Any TESAE, events” value [4] was 0 #. The “Any TESAE, subjects” value [4] was 0 n (%), the “Any Treatment-Related TEAE, events” value [4] was 1 # and the “Any Treatment-Related TEAE, subjects” value [4] was 1 (1.1) n (%). The “Any Treatment-Related TEAESI, events” value [4] was 0 #, the “Any Treatment-Related TEAESI, subjects” value [4] was 0 n (%) and the “Any Treatment-Related TESAE, events” value [4] was 0 #. For the same compound, the “Any Treatment-Related TESAE, subjects” value [4] was 0 n (%), the “Any Unexpected TEAE, events” value [4] was 9 # and the “Any Unexpected TEAE, subjects” value [4] was 6 (6.7) n (%). For the same compound, the “Any Unexpected Treatment-Related TEAE, events” value [4] was 0 #.
